Measured values: patent EP1289507B1, “USE OF AN ALDOSTERONE ANTAGONIST FOR THE TREATMENT OR PROPHYLAXIS OF ALDOSTERONE-MEDIATED PATHOGENIC EFFECTS” (priority 2000, dated 2001)
Like-named read-outs stand apart in the source and are kept apart here.

Experiments:
[1] = Pharmacokinetics and tolerability in subjects with moderate hepatic impairment vs normal healthy subjects; assay type: in vivo, human subjects; details: for AUC(0-t): read-out: AUC (0-lqc), Least Squares Mean; for AUC(0-inf): read-out: AUC (0-∞), Least Squares Mean
[2] = test system: saline-drinking SHRSP; assay: Protocol 1: renal pathologic changes in saline-drinking SHRSP; assay type: in vivo, male SHRSP/A3N
Protocol: Animals. Studies were conducted in accordance with institutional guidelines using male SHRSP/A3N (generations F-75 to F-78), n = 37, from our local colony. These animals were bred from NIH stock, derived from the SHRSP/A3N substrain described originally by Okamoto and coworkers (Okamoto K et al. Circ. Res. 34 and 35 (suppl I):I-143-I-153.). All animals were housed in a room maintained on a 12:12-h light:dark-cycle and an ambient temperature of 22 ± 1°C in the Animal Care Facility at New York Medical College. Rats were weaned at 4 weeks of age and allowed free access to Purina Lab Chow 5001 (Ralston Purina, St. Louis, MO) and tap water until the initiation of experimental protocols.
Eighteen SHRSP were given 1% NaCl to drink and were fed Stroke-Prone Rodent Diet (#39-288, Zeigler Brothers, Inc., Gardners, PA) starting at 8.1 weeks of age. […] Vehicle-control littermates received 2 ml/kg/d of the 0.5% methylcellulose solution. Animals were housed individually in metabolic cages so that measurements of 24-h urine output and protein excretion could be made. Animals were examined each day for neurologic signs of stroke. Systolic arterial pressure and heart rate were measured each week in awake rats. The experiment was terminated after 5 weeks of treatment when the animals were 13.1 weeks of age. Trunk blood was collected into chilled EDTA tubes following rapid decapitation of the animals between 10:00 am and 12:00 pm. Blood was stored at - 20°C for later measurement of plasma aldosterone levels. The kidneys were rapidly removed, weighed, and then preserved in fixative for later histologic examination.
Assays and Analyses. Systolic blood pressure and heart rate of awake animals were measured by tail-cuff plethysmography using a Natsume KN-210 manometer and tachometer (Peninsula Laboratories Inc., Belmont, CA). Rats were warmed at 37°C for 10 min and allowed to rest quietly in a Lucite chamber before measurement of blood pressure. Measurements of urine volume were made gravimetrically. Urinary protein concentration was determined by the sulfosalicylic acid turbidity method. Plasma aldosterone was measured by radioimmunoassay using ^125I-aldosterone as a tracer (Coat-a Count Aldosterone, Diagnostic Products Co., Los Angeles, CA).
Histology. Kidneys were preserved in 10% phosphate-buffered formalin. Coronal sections (2-3 µm) were stained with hematoxylin and eosin and examined by light microscopy in a blinded fashion as previously described (Stier CT et al. J Pharmacol Exp Ther (1992) 260:1410-1415). Glomerular damage was categorized as ischemic or thrombotic. Ischemic lesions were defined as retraction of glomerular capillary tufts with or without appreciable mesangiolysis. Glomerular thrombotic lesions were defined as any one of a combination of the following: segmental to global fibrinoid necrosis, focal thrombosis of glomerular capillaries, swelling and proliferation of intracapillary (endothelial and mesangial) and/or extracapillary cells (crescents), and expansion of reticulated mesangial matrix with or without significant hypercellularity. […] Vascular thrombotic lesions were defined as any one or a combination of the following: mural fibrinoid necrosis, extravasation and fragmentation of red blood cells, and luminal and/or mural thrombosis. Proliferative arteriopathy was characterized by proliferation of markedly swollen myointimal cells with swollen round to ovoid vesicular nuclei surrounded by mucinous extracellular matrix ("onion skinning") often resulting in nodular thickening. Vascular damage was expressed as the number of arteries and arterioles with lesions per 100 glomeruli. The presence of casts and tubular (ischemic) retraction and simplification was assessed semiquantitatively.
Statistical Analysis. Significant effects with respect to treatment and time were determined by two-way analysis of variance. Data with only one grouping variable were analyzed statistically by Student's unpaired t tests. […]

[3] = human, in vivo, 400 mg, Single Dose, Moderate Impairment
[4] = human, in vivo, 400 mg, Single Dose, Normal
[5] = oral eplerenone 100 mg/kg/d, preterminal

COC(=O)[C@@H]1CC2=CC(=O)CC[C@]2(C)[C@@]23O[C@@H]2C[C@@]2(C)[C@@H](CC[C@@]24CCC(=O)O4)[C@H]13 [Eplerenone, Pregn-4-ene-7,21-dicarboxylic acid, 9,11-epoxy-17-hydroxy-3-oxo-, γ-lactone, methyl ester, (7α, 11α, 17β)-]
AUC greater among subjects with moderate hepatic impairment than matched normal subjects ([1]; 400 mg, single dosing, b445 and b448 state it for single and multiple dose): 41-50% | Ratio of Means AUC (0-24)/AUC0-co) ([1]; Moderate Hepatic Impairment): 0.95 | AUC (0-24), Ratio of Means Moderate/Normal ([1]; Multiple Dose): 1.456 | CL/F, Ratio of Means Moderate/Normal ([1]; Multiple Dose): 0.687 | Cmax, Ratio of Means Moderate/Normal ([1]; Multiple Dose): 1.037 | XU(0-48), Ratio of Means Moderate/Normal ([1]; Multiple Dose): 2.007 | XU(0-48), Least Squares Mean ([1]; Multiple Dose, Moderate Impairment): 14.9 mg | XU(0-48), Least Squares Mean ([1]; Multiple Dose, Normal): 7.4 mg | Ratio of Means AUC (0-24)/AUC0-co) ([1]; Normal): 1.02 | AUC (0-lqc), Ratio of Means Moderate/Normal ([1]; Single Dose): 1.413 | AUC (0-∞), Ratio of Means Moderate/Normal ([1]; Single Dose): 1.497 | CL/.F, Ratio of Means Moderate/Normal ([1]; Single Dose): 0.668 | Cmax, Ratio of Means Moderate/Normal ([1]; Single Dose): 0.894 | XU(0-48), Ratio of Means Moderate/Normal ([1]; Single Dose): 1.016 | XU(0-48), Least Squares Mean ([1]; Single Dose, Moderate Impairment): 7.9 mg | XU(0-48), Least Squares Mean ([1]; Single Dose, Normal): 7.8 mg | AUC higher in moderate impairment compared to matched normal subjects ([1]; following multiple dosing 400 mg QD): 46% | AUC tau at 24 h ([1]; human, in vivo, 400 mg, Multiple Dose, Moderate Impairment, read-out: AUC (0-24), Least Squares Mean): 43800 ng·h/mL | CL/F ([1]; human, in vivo, 400 mg, Multiple Dose, Moderate Impairment, read-out: CL/F, Least Squares Mean (converted)): 152 mL/min | CL/F ([1]; human, in vivo, 400 mg, Multiple Dose, Moderate, read-out: CL/F, Mean (converted)): 149 mL/min | AUC tau at 24 h ([1]; human, in vivo, 400 mg, Multiple Dose, Normal, read-out: AUC (0-24), Least Squares Mean): 30100 ng·h/mL | CL/F ([1]; human, in vivo, 400 mg, Multiple Dose, Normal, read-out: CL/F, Least Squares Mean (converted)): 222 mL/min | CL/F ([1]; human, in vivo, 400 mg, Multiple Dose, Normal, read-out: CL/F, Mean (converted)): 230 mL/min | Tmax ([1]; human, in vivo, 400 mg, Multiple Dose, Normal, read-out: Tmax, Least Squares Mean): 2.1 h | AUC(0-t) [1, 3]: 42800 ng·h/mL | AUC(0-inf) [1, 3]: 43600 ng·h/mL | CL/F ([1]; human, in vivo, 400 mg, Single Dose, Moderate Impairment, read-out: CL/.F, Least Squares Mean (converted)): 153 mL/min | CL/F ([1]; human, in vivo, 400 mg, Single Dose, Moderate, read-out: CL/F, Mean (converted)): 175 mL/min | AUC(0-t) [1, 4]: 30300 ng·h/mL | AUC(0-inf) [1, 4]: 29100 ng·h/mL | CL/F ([1]; human, in vivo, 400 mg, Single Dose, Normal, read-out: CL/.F, Least Squares Mean (converted)): 228 mL/min | CL/F ([1]; human, in vivo, 400 mg, Single Dose, Normal, read-out: CL/F, Mean (converted)): 254 mL/min | AUC tau at 24 h ([1]; human, in vivo, 400 mg, linear kinetics assessment, Moderate Hepatic Impairment, read-out: Multiple Dose AUC (0-24), Least Squares Mean): 47200 ng·h/mL | AUC tau at 24 h ([1]; human, in vivo, 400 mg, linear kinetics assessment, Normal, read-out: Multiple Dose AUC (0-24), Least Squares Mean): 29300 ng·h/mL | subjects with adverse events ([1]; subjects with moderate hepatic impairment): 44% | subjects with adverse events ([1]; subjects with normal hepatic function): 35% | Glomerular damage, Ischemic ([2]; 100 mg/kg/d by gavage, 5 weeks): 1.0 ± 1.0 lesions/100 glomeruli | Glomerular damage, Thrombotic ([2]; 100 mg/kg/d by gavage, 5 weeks): 0.1 ± 0.1 lesions/100 glomeruli | Glomerular damage, Total ([2]; 100 mg/kg/d by gavage, 5 weeks): 1.0 ± 1.0 lesions/100 glomeruli | Renal angiopathy, Proliferative ([2]; 100 mg/kg/d by gavage, 5 weeks): 0.1 ± 0.1 lesions/100 glomeruli | Renal angiopathy, Thrombotic ([2]; 100 mg/kg/d by gavage, 5 weeks): 1.0 ± 1.0 lesions/100 glomeruli | Renal angiopathy, Total ([2]; 100 mg/kg/d by gavage, 5 weeks): 1.0 ± 1.0 lesions/100 glomeruli | Protein casts, % of tubules ([2]; 100 mg/kg/d, 5 weeks): 0.11 ± 0.04% | tubules displaying ischemic retraction and simplification ([2]; 100 mg/kg/d, 5 weeks): 0.5 ± 0.2% | evidence of stroke ([2]; n = 9, P < .01 vs vehicle): none | renal lesions ([2]; oral eplerenone 100 mg/kg/d for 5 to 6 weeks): 1 ± 1% | proteinuria (urinary protein excretion) [2, 5]: 16 ± 2 mg/day | severe hypertension (systolic blood pressure) [2, 5]: 219 ± 6 mm Hg
